Values joined by “and” are separate entries in the source; they are usually repeats but may differ in a detail not shown here. Identical values can stand only once.
Columns and labels:
[1] = molecular target: His6-C-linker-CNBD construct of SthK (residues 226-423); assay: AFM imaging
[2] = molecular target: His6-C-linker-CNBD construct of SthK (residues 226-423); assay: SEC
SthK = conditions: cited from earlier work; for open probability Po: depolarized membrane potentials (+100 mV)
SthK CNBD [3] = assay: AFM single molecule force spectroscopy; assay type: binding; conditions: for Ka: individual binding sites, Ka=Ka(2D)mr, mr=0.03 binding-sites/nm^2; for Ka(2D): probabilistic binding frequency model fit, contact time 0.02-1.00 s
SthK CNBD [4] = assay: joint Bell-Evans fitting of AFM-SMFS and MDS dynamic force spectra; conditions: Bell-Evans fit, AFM-SMFS + MDS joint data; 0.02 s bond formation
[5] = molecular target: SthK full-length channels; conditions: read-out: affinity; SthK full-length channels in amphipol; cited from earlier work
His6-C-linker-CNBD = molecular target: T1, His6-C-linker-CNBD (Winmispira thermophila, UniProt G0GA88); assay: microscale thermophoresis; assay type: binding; conditions: 50 nM labeled His6-C-linker-CNBD; cN 0.00305-100 μM
T1 sequence (G0GA88 226-423): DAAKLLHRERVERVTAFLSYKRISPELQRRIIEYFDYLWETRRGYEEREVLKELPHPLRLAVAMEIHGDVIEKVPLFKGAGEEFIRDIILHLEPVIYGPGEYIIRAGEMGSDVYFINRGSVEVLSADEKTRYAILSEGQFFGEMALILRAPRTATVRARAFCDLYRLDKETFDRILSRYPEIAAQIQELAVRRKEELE

[6] = interchange between state 1 and state 2 bonds

| stoichiometry N [1] | stoichiometry N [2] | koff (SthK CNBD [3]; Bell-Evans fit, AFM-SMFS only, 0.02 s (20 ms) bond formation time) [s⁻¹] | kon(2D) (SthK CNBD [3]; kon(2D)=Ka(2D)koff) [nm^2/s] | kon (SthK CNBD [3]; molecular on rate, kon=Kakoff) [s⁻¹] | Kd (His6-C-linker-CNBD) [nM] | Compound | open probability Po (SthK) | fold lower open probability than cAMP (SthK; single channel recordings) | Ka (SthK CNBD [3]) | Ka(2D) (SthK CNBD [3]) [nm^2] | koff (SthK CNBD [4]) [s⁻¹] | Kd [5] [nM] | bond formation time needed to fully populate state 2 (SthK CNBD [3]) | k1 (forward rate constant for entering the deeper binding mode) (SthK CNBD [3]; [6]) | k−1 (reverse rate constant for entering the deeper binding mode) (SthK CNBD [3]; [6]) |
| --- | --- | --- | --- | --- | --- | --- | --- | --- | --- | --- | --- | --- | --- | --- | --- |
| 4 | 4 | – | – | – | – | His6-C-linker-CNBD construct of SthK (residues 226-423) (domain or fragment) | – | – | – | – | – | – | – | – | – |
| – | – | 7.7 ± 1.5 | 37.8 ± 9.7 | 1.2 ± 0.3 | 3300 ± 1800 | Nc1nc2c(ncn2[C@@H]2O[C@@H]3COP(=O)(O)O[C@H]3[C@H]2O)c(=O)[nH]1 [cGMP, cyclic guanosine monophosphate] | ~ 0.001 | ~ 1000 fold | 0.15 ± 0.02 | 4.9 ± 0.5 | 13.9 ± 6.9 | 2700 | – | – | – |
| – | – | – | – | – | – | Nc1ncnc2c1ncn2[C@@H]1O[C@@H]2COP(=O)(O)O[C@H]2[C@H]1O [cAMP, cyclic adenosine monophosphate] | ~ 0.4 | – | 0.31 ± 0.04 | 10.4 ± 1.3 | – | 600 | ~ 0.2 s | 5.4 ± 0.7 1/s and 5.4±0.7 * 1/s | 4.8 ± 0.8 1/s and 4.8±0.8 * 1/s |
